Measurements taken from US20070059756A1, “Immunointeractive molecules and their uses in treating subjects suffering from Hev b 5 allergies” (priority 1999, published 2007).

Experiments:
Assay type in all cases: cell-based, human
[1] = tested on: latex specific T cell lines; assay: Oligoclonal T cell proliferation assay (3H-thymidine incorporation); set-up: key to Proliferation inducing (+) or non-inducing (−) peptide: Proliferation inducing and non-inducing peptides are indicated by (+) and (−) respectively; Proliferation inducing and non-inducing peptides are indicated by (+) and (−) respectively; conditions: for Oligoclonal proliferative response: 4 day cultures
Description: Latex specific T cell lines were isolated using our well established methods for the generation of allergen specific oligoclonal T cell populations (O'Hehir et al., 1987). An initial primary culture was performed for each patient to determine the optimal concentration of LAL for stimulation. For this, peripheral blood mononuclear cells (PBMC) separated from heparinised venous blood by density centrifugation (2×10^5/well) were stimulated with LAL over a concentration range 0.03 to 100 μg/ml, with control cultures of PBMC alone or stimulated with tetanus toxoid. All cultures were maintained in complete medium (RPMI-1640, Gibco Life Technologies supplemented with 2 mmol/L L-glutamine, 100 IU/ml penicillin-streptomycin and 5% screened, heat inactivated human AB serum [Sigma]). […] Therefore, to generate T cell lines, PBMC (2.5×10^6/well) were stimulated for 1 week with LAL at a concentration of 20 μg/ml in 24-well tissue culture plates (Costar, USA). After 7 days, lymphoblasts (1×10^6/well) were restimulated for one week with LAL at a concentration of 20 μg/ml in the presence of an equal number of irradiated (3000 rad) autologous PBMC as antigen presenting cells (APC). On days 2 and 4, cultures were supplemented with Lymphocult-T (5% v/v; Biotest Folex, Germany) and fresh medium. At the end of the second week, lymphoblasts were restimulated for one week with rhev b 5/MBP at a concentration of 20 μg/ml as described above. Oligoclonal T cells were recovered, washed and tested in proliferation and cytokine assays (as described below) either fresh or after cryopreservation in liquid nitrogen. We have previously shown that CD4^+ T cells are preferentially expanded in these cultures.
Oligoclonal T cell blasts (5×10^4) were incubated in 96-well round bottom plates (Linbro, ICN Biomedicals, USA) in triplicate with equal numbers of irradiated APC in the presence of LAL at concentrations ranging from 0.03-100 μg/ml, rHev b 5/MBP (10 and 20 μg/ml), MBP (10 and 20 μg/ml), overlapping peptides of the Hev b 5 sequence (10 and 30 μg/ml), Lymphocult-T (10 IU/ml) or PHA (3 μg/ml). Cultures of T cells and APC in the absence of antigen, T cells alone and APC alone in the absence of antigen were included as controls. After 72 hours cultures were pulsed with 1 μCi of ^3H-thymidine (^3HTdR; Du Pont, NEN) and harvested 12-16 hours later. Proliferation as correlated with ^3HTdR incorporation was measured by liquid scintillation spectroscopy. Results are expressed as mean counts per minute (cpm) for triplicate cultures with standard deviation (SD; ±20% for all experiments).

[2] = tested on: IFNγ; assay: IFNγ production by latex specific oligoclonal T cells (ELISA on culture supernatants); conditions: supernatant at 48 hours
Description: (§1) Representative stimulatory and non-stimulatory peptides were selected and T cells cultured in triplicate with these peptides. At 48 hours 50 μl of supernatant was harvested from the cultures and IL-5 and IFNγ were assayed by ELISA using paired cytokine antibodies (from Pharmingen Becton Dickinson, USA and Endogen, USA respectively). For this, opaque flat bottom ELISA plates (Nalgene, Nunc International) were coated with 30 μl capture antibody at 2 μg/ml in 0.1 M NaHCO3 pH 8.2 coating buffer overnight at 4° C. After washing three times with PBS/0.5% Tween the wells were blocked with 3% BSA/PBS at room temperature for 2 hours. The plates were washed and 30 μL pooled triplicate culture supernatants added in duplicate. […] Light emission was read immediately on a Lumicount microplate Glow Luminometer (Packard Instrument Company). A standard curve was run each time using known concentrations of standard cytokine samples and the concentrations of IL-S and IFNγ in the culture supernatants calculated accordingly. The lower limit of detection of the IL-5 assay was 20 pg/ml and the lower limit of detection of the IFN-γ assay was 2 pg/ml.

[3] = tested on: IL-5; assay: IL-5 production by latex specific oligoclonal T cells (ELISA on culture supernatants); conditions: for IL-5: supernatant at 48 hours; for secretion of IL-5 (in words): patient 4 T cell line
Description: as §1

[4] = P1 T cell line, antigen 10 μg/ml
[5] = P1 T cell line, antigen 30 μg/ml
[6] = P2 T cell line, antigen 10 μg/ml
[7] = P2 T cell line, antigen 30 μg/ml
[8] = P3 T cell line, antigen 10 μg/ml
[9] = P3 T cell line, antigen 30 μg/ml
[10] = P4 T cell line, antigen 10 μg/ml
[11] = P4 T cell line, antigen 30 μg/ml
[12] = P5 T cell line, antigen 10 μg/ml
[13] = P5 T cell line, antigen 30 μg/ml
[14] = P6 T cell line, antigen 10 μg/ml
[15] = P6 T cell line, antigen 30 μg/ml
[16] = P1 T cell line, peptide 10 μg/ml
[17] = P1 T cell line, peptide 30 μg/ml
[18] = P2 T cell line, peptide 10 μg/ml
[19] = P2 T cell line, peptide 30 μg/ml
[20] = P3 T cell line, peptide 10 μg/ml
[21] = P3 T cell line, peptide 30 μg/ml
[22] = P4 T cell line, peptide 10 μg/ml
[23] = P4 T cell line, peptide 30 μg/ml

| Sequence | Proliferation inducing (+) or non-inducing (−) peptide ([1]; P1 T cell line) | Oligoclonal proliferative response [1, 4] [counts per minute × 10^−3] | Oligoclonal proliferative response [1, 5] [counts per minute × 10^−3] | Proliferation inducing (+) or non-inducing (−) peptide ([1]; P2 T cell line) | Oligoclonal proliferative response [1, 6] [counts per minute × 10^−3] | Oligoclonal proliferative response [1, 7] [counts per minute × 10^−3] | Oligoclonal proliferative response [1, 8] [counts per minute × 10^−3] | Oligoclonal proliferative response [1, 9] [counts per minute × 10^−3] | Proliferation inducing (+) or non-inducing (−) peptide ([1]; P4 T cell line) | Oligoclonal proliferative response [1, 10] [counts per minute × 10^−3] | Oligoclonal proliferative response [1, 11] [counts per minute × 10^−3] | Oligoclonal proliferative response [1, 12] [counts per minute × 10^−3] | Oligoclonal proliferative response [1, 13] [counts per minute × 10^−3] | Oligoclonal proliferative response [1, 14] [counts per minute × 10^−3] | Oligoclonal proliferative response [1, 15] [counts per minute × 10^−3] | IFNγ [2, 16] [pg/mL] | IFNγ [2, 17] [pg/mL] | IFNγ [2, 18] [pg/mL] | IFNγ [2, 19] [pg/mL] | IFNγ [2, 22] [pg/mL] | further results |
| --- | --- | --- | --- | --- | --- | --- | --- | --- | --- | --- | --- | --- | --- | --- | --- | --- | --- | --- | --- | --- | --- |
| TKETETEAPAAPAEGEKPAE [Hev b 5 (109-128)] | 109-128 (−) | 8.2 | 5.6 | 109-128 (+) | 36.9 | 42.7 | 13.7 | 17.3 | 109-128 (+) | 2.3 | 3.0 | 1.3 | 0.9 | 0.9 | 0.6 | 0 | 0 | 73 | 97 | 0 | Proliferation inducing (+) or non-inducing (−) peptide ([1]; P3 T cell line): 109-128 (+); donors whose T cells proliferated in response to the peptide ([1]; five donors with IgE reactivity to rHev b 5/MBP): three of the five donors; IFNγ [2, 20]: 257 pg/mL; IFNγ [2, 21]: 292 pg/mL; IFNγ [2, 23]: 0 pg/mL; IL-5 [3, 16]: 0 pg/mL; IL-5 [3, 17]: 69 pg/mL; IL-5/IFNγ ratio [3, 18]: 4; IL-5 [3, 18]: 293 pg/mL; IL-5/IFNγ ratio [3, 19]: 6.1; IL-5 [3, 19]: 595 pg/mL; IL-5/IFNγ ratio [3, 20]: 5.5; IL-5 [3, 20]: 1403 pg/mL; IL-5/IFNγ ratio [3, 21]: 5.3; IL-5 [3, 21]: 1559 pg/mL; IL-5/IFNγ ratio [3, 22]: 166; IL-5 [3, 22]: 166 pg/mL; IL-5/IFNγ ratio [3, 23]: 212; IL-5 [3, 23]: 212 pg/mL; secretion of IL-5 (in words) [3]: secretion of IL-5 |
| ASEQETADATPEKEEPTAAP [Hev b 5 (37-56)] | 37-56 (−) | 7.1 | 8.5 | 37-56 (+) | 18.3 | 38.8 | 8.8 | 2.7 | 37-56 (+) | 3.0 | 3.2 | 1.4 | 1.1 | 1.4 | 0.9 | 0 | 0 | 74 | 77 | 0 | IFNγ [2, 23]: 6 pg/mL; IL-5 [3, 16]: 0 pg/mL; IL-5 [3, 17]: 0 pg/mL; IL-5/IFNγ ratio [3, 18]: 10.1; IL-5 [3, 18]: 744 pg/mL; IL-5/IFNγ ratio [3, 19]: 10; IL-5 [3, 19]: 767 pg/mL; IL-5/IFNγ ratio [3, 22]: 173; IL-5 [3, 22]: 173 pg/mL; IL-5/IFNγ ratio [3, 23]: 49.3; IL-5 [3, 23]: 296 pg/mL; secretion of IL-5 (in words) [3]: secretion of IL-5 |
| APAEPEAPAPETEKAEEVEK [Hev b 5 (55-74)] | 55-74 (−) | 5.0 | 7.7 | 55-74 (−) | 2.8 | 5.6 | 9.1 | 8.2 | 55-74 (+) | 2.0 | 2.8 | 1.1 | 0.7 | 0.7 | 0.9 | 0 | 0 | 2 | 4 | 0 | IFNγ [2, 23]: 0 pg/mL; IL-5 [3, 16]: 0 pg/mL; IL-5 [3, 17]: 0 pg/mL; IL-5 [3, 18]: 0 pg/mL; IL-5 [3, 19]: 0 pg/mL; IL-5/IFNγ ratio [3, 22]: 70; IL-5 [3, 22]: 70 pg/mL; IL-5/IFNγ ratio [3, 23]: 199; IL-5 [3, 23]: 199 pg/mL; secretion of IL-5 (in words) [3]: secretion of IL-5 |
| AEEEKPITEAAETATTEVPV [Hev b 5 (127-146)] | – | 3.3 | 4.4 | – | 3.8 | 6.6 | 7.1 | 8.3 | – | 2.2 | 1.6 | 2.7 | 2.5 | 1.0 | 0.8 | – | – | – | – | – | – |
